# Assay results from ChEMBL document CHEMBL5346973 (J Med Chem, 2023).
# Where a SMILES comes first, the peptide text is derived from it.
# Key:
# [1] = biological target: Neuronal acetylcholine receptor; alpha9/alpha10 (Homo sapiens, UniProt Q9GZZ6+Q9UGM1); test: Antagonist activity at human alpha9alpha10 nACh receptor expressed in Xenopus oocyte assessed as inhibition of acetylcholine-induced response at -70 mV holding potential by voltage-clamp based electrophysiological assay; type: cell-based
# [2] = biological target: Nicotinic acetylcholine receptor alpha9/alpha10 (Rattus norvegicus, UniProt P43144+Q9JLB5); test: Antagonist activity at rat alpha9alpha10 nACh receptor expressed in Xenopus oocyte assessed as inhibition of acetylcholine-induced response at -70 mV holding potential by voltage-clamp based electrophysiological assay; type: cell-based
# [3] = Selectivity ratio of IC50 for human alpha9alpha10 nACh receptor to IC50 for rat alpha9alpha10 nACh receptor
# [4] = biological target: Neuronal acetylcholine receptor subunit alpha-7 (Rattus norvegicus, UniProt Q05941); test: Antagonist activity at rat alpha7 nACh receptor expressed in Xenopus oocyte assessed as inhibition of acetylcholine-induced response at -70 mV holding potential by voltage-clamp based electrophysiological assay; type: cell-based
# Sequence of Neuronal acetylcholine receptor subunit alpha-7 (Q05941 whole entry): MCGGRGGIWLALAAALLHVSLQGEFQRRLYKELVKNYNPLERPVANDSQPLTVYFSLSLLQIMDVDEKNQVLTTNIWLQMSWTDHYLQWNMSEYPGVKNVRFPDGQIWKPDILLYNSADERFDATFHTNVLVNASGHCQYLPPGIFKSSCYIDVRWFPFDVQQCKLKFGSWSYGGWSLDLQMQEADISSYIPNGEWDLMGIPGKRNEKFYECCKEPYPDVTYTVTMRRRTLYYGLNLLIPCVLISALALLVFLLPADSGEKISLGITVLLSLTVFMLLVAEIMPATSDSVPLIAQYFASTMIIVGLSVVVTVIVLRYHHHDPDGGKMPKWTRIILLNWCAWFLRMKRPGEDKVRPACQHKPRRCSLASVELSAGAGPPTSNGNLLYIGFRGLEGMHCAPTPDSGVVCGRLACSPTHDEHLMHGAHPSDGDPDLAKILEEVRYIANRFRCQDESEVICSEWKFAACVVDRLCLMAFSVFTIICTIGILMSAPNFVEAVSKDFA
# Sequence of Nicotinic acetylcholine receptor alpha9/alpha10 (P43144 whole entry): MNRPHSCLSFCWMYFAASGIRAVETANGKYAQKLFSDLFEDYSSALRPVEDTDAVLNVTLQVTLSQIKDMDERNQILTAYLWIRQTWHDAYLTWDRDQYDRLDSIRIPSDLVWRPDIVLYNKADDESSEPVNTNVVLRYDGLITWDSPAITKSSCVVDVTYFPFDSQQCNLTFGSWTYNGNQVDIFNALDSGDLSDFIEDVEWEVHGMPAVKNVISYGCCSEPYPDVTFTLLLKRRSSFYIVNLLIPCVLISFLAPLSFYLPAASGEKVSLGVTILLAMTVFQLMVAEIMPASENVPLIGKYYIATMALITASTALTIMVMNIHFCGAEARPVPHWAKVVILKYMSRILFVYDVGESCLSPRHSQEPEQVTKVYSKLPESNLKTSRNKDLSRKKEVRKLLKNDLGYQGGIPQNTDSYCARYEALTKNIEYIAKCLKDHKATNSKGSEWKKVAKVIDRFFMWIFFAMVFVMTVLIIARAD
# Sequence of Nicotinic acetylcholine receptor alpha9/alpha10 (Q9JLB5 whole entry): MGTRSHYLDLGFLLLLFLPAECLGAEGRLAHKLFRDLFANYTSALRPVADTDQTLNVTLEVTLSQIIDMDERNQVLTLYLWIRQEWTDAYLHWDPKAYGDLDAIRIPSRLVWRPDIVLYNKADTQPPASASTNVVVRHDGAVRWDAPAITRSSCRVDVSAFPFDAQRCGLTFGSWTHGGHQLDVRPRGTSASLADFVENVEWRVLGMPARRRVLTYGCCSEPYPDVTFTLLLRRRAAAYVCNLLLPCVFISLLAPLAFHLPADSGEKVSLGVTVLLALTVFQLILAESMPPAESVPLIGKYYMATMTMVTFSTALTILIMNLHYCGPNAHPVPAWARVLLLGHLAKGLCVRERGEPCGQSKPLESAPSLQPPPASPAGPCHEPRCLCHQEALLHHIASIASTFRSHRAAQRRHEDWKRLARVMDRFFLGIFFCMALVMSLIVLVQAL
# Sequence of Neuronal acetylcholine receptor; alpha9/alpha10 (Q9UGM1 whole entry): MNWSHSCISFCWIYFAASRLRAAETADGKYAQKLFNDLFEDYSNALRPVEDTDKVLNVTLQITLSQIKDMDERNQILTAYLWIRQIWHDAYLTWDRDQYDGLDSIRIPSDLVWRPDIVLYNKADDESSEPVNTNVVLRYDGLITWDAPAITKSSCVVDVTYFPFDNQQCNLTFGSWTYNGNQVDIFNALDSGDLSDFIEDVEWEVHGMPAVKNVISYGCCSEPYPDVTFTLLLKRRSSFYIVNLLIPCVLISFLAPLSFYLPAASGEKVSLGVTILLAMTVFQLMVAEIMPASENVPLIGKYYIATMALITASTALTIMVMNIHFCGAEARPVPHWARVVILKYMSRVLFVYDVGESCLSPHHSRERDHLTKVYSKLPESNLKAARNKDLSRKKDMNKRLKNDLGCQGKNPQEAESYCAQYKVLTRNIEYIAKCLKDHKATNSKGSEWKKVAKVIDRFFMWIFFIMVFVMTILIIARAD
# Sequence of Neuronal acetylcholine receptor; alpha9/alpha10 (Q9GZZ6 whole entry): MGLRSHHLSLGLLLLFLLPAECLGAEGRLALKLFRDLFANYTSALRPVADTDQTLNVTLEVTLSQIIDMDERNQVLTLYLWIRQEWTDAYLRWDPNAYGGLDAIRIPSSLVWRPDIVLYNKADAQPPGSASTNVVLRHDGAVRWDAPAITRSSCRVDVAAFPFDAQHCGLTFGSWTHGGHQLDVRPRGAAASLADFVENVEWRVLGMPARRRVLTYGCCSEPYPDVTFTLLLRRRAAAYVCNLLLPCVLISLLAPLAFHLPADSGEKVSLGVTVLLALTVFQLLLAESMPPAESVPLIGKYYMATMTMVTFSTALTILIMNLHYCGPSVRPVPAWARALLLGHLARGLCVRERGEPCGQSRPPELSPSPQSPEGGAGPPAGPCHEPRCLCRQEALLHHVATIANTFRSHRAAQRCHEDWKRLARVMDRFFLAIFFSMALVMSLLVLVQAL
structure (smiles),measurement,setting,value
CC[C@H](C)[C@H](NC(=O)[C@H](CCC(=O)O)NC(=O)[C@@H]1CCCN1C(=O)[C@H](Cc1cnc[nH]1)NC(=O)[C@H](CC(=O)O)NC(=O)[C@H](Cc1ccc(O)cc1)NC(=O)[C@H](CC(N)=O)NC(=O)[C@H](CS)NC(=O)[C@H](CCCNC(=N)N)NC(=O)[C@@H]1CCCN1C(=O)[C@H](CC(=O)O)NC(=O)[C@H](CO)NC(=O)[C@H](CS)NC(=O)[C@H](CS)NC(=O)CN)C(=O)N[C@@H](CS)C(N)=O,IC50,[1],320 nM
same,IC50,[2],70 nM
same,Ratio IC50,[3],4.6
C[C@@H](O)[C@H](NC(=O)[C@H](CS)NC(=O)[C@H](CS)NC(=O)CN)C(=O)N[C@@H](CC(=O)O)C(=O)N1CCC[C@H]1C(=O)N[C@@H](CCCNC(=N)N)C(=O)N[C@@H](CS)C(=O)N[C@@H](CCCNC(=N)N)C(=O)N[C@@H](Cc1ccc(O)c(I)c1)C(=O)N[C@@H](CCC(N)=O)C(=O)N[C@@H](CS)C(=O)N[C@@H](Cc1ccc(O)cc1)C(=O)O,IC50,[1],1.5 nM
same,IC50,[2],0.9 nM
same,Ratio IC50,[3],1.7
N=C(N)NCCC[C@H](NC(=O)[C@H](CS)NC(=O)[C@H](CCCNC(=N)N)NC(=O)[C@H](Cc1ccc(O)cc1)NC(=O)[C@H](CCCNC(=N)N)NC(=O)[C@H](CS)NC(=O)[C@H](CCCNC(=N)N)NC(=O)[C@@H]1CCCN1C(=O)[C@H](CC(=O)O)NC(=O)[C@H](CO)NC(=O)[C@H](CS)NC(=O)[C@H](CS)NC(=O)CN)C(=O)O,IC50,[1],494 nM
same,IC50,[2],1.5 nM
same,Ratio IC50,[3],329
CC(C)C[C@H](NC(=O)[C@H](CCC(=O)O)NC(=O)[C@@H]1CCCN1C(=O)[C@H](Cc1cnc[nH]1)NC(=O)[C@H](CC(N)=O)NC(=O)[C@@H](NC(=O)[C@H](CO)NC(=O)[C@H](CS)NC(=O)[C@H](C)NC(=O)[C@@H]1CCCN1C(=O)[C@H](Cc1cnc[nH]1)NC(=O)[C@H](CO)NC(=O)[C@H](CS)NC(=O)[C@H](CS)NC(=O)CN)C(C)C)C(=O)N[C@@H](CS)C(N)=O (H-GCCSHPACSVNHPELC-NH2),IC50,[1],22.2 nM
same,IC50,[2],6.9 nM
same,Ratio IC50,[3],3.2
CC[C@H](C)[C@@H]1NC(=O)[C@H](C)NC(=O)[C@H](CCCNC(=N)N)NC(=O)[C@@H]2CSSC[C@H](NC(=O)[C@H](Cc3ccc(O)cc3)NC(=O)[C@H](CCCNC(=N)N)NC(=O)CNC(=O)[C@H](CO)NC(=O)[C@H](CO)NC(=O)[C@H](CCCNC(=N)N)NC(=O)[C@@H](NC(=O)[C@@H](N)[C@@H](C)O)CSSC[C@@H](C(=O)N[C@H](C(=O)O)C(C)C)NC(=O)[C@H](C)NC(=O)[C@H](CC(=O)O)NC(=O)[C@H]([C@@H](C)O)NC1=O)C(=O)N[C@@H](CCCNC(=N)N)C(=O)N[C@@H](CO)C(=O)N1CCC[C@H]1C(=O)N[C@@H](Cc1ccc(O)cc1)C(=O)N[C@@H](CC(=O)O)C(=O)N[C@@H](CCCNC(=N)N)C(=O)N[C@@H](CCCNC(=N)N)C(=O)N[C@@H](CCCNC(=N)N)C(=O)N[C@@H](CCCNC(=N)N)C(=O)N[C@@H](Cc1ccc(O)cc1)C(=O)N2,IC50,[4],> 10000 nM
same,IC50,[2],185 nM
CC[C@H](C)[C@@H]1NC(=O)[C@H](CCCNC(=N)N)NC(=O)[C@H](CCCNC(=N)N)NC(=O)[C@@H]2CSSC[C@H](NC(=O)[C@H](Cc3ccc(O)cc3)NC(=O)[C@H](CCCNC(=N)N)NC(=O)CNC(=O)[C@H](CO)NC(=O)[C@H](CO)NC(=O)[C@H](CCCNC(=N)N)NC(=O)[C@@H](NC(=O)[C@@H](N)[C@@H](C)O)CSSC[C@@H](C(=O)N[C@H](C(=O)O)C(C)C)NC(=O)[C@H](C)NC(=O)[C@H](CC(=O)O)NC(=O)[C@H]([C@@H](C)O)NC1=O)C(=O)N[C@@H](CCCNC(=N)N)C(=O)N[C@@H](CO)C(=O)N1CCC[C@H]1C(=O)N[C@@H](Cc1ccc(O)cc1)C(=O)N[C@@H](CC(=O)O)C(=O)N[C@@H](CCCNC(=N)N)C(=O)N[C@@H](CCCNC(=N)N)C(=O)N[C@@H](CCCNC(=N)N)C(=O)N[C@@H](CCCNC(=N)N)C(=O)N[C@@H](C)C(=O)N2,IC50,[4],7640 nM
same,IC50,[2],38 nM
